According to ChEMBL document CHEMBL4270488, “Antibacterial Compounds from Marine Bacteria, 2010-2015” (J Nat Prod, 2017):
Values after ≈ are worked out from the molar mass of the structure shown. Where a SMILES comes first, the peptide text is derived from it. Bridges are numbered along the chain shown (N, C = ends). [ ]: non-standard residue; d: D form. The star is where a group is joined. ξ: configuration not given here. NMeLeu(3ξ-Me) = CN[C@H](C(=O)O)C(C)C(C)C; d(cisHyp) = O=C(O)[C@H]1C[C@@H](O)CN1; Picolinoyl(3-OH) = O=C(c1ncccc1O)*; NMePhg = CN[C@H](C(=O)O)c1ccccc1; Sar = CNCC(=O)O

What was measured:
Type in all cases: functional
Staphylococcus aureus [1] = test: Antibacterial activity against methicillin-resistant Staphylococcus aureus ATCC 43300
Staphylococcus aureus [2] = test: Antibacterial activity against Staphylococcus aureus […]
Bacillus anthracis = test: Antibacterial activity against Bacillus anthracis UM23C1-1 by microplate assay
Staphylococcus aureus [3] = test: Antibacterial activity against Staphylococcus aureus ATCC 13709 by microplate assay
Enterococcus faecalis [4] = test: Antibacterial activity against Enterococcus faecalis ATCC 29212 by microplate assay
Streptococcus pneumoniae = test: Antibacterial activity against Streptococcus pneumoniae ATCC 51916 by microplate assay
Staphylococcus aureus [5] = test: Antibacterial activity against methicillin-resistant Staphylococcus aureus infected in CD1 mouse assessed as mouse survival rate at 10 mg/kg
Staphylococcus aureus [6] = test: Antibacterial activity against methicillin-sensitive Staphylococcus aureus
Moraxella catarrhalis [7] = test: Antibacterial activity against Moraxella catarrhalis
Staphylococcus aureus [8] = test: Antibacterial activity against community associated methicillin-resistant Staphylococcus aureus incubated for 18 to 20 hrs by microbroth dilution method
Staphylococcus aureus [9] = test: Antibacterial activity against hospital associated methicillin-resistant Staphylococcus aureus incubated for 18 to 20 hrs by microbroth dilution method
Streptococcus pyogenes = test: Antibacterial activity against Streptococcus pyogenes incubated for 18 to 20 hrs by microbroth dilution method
Streptococcus agalactiae = test: Antibacterial activity against Streptococcus agalactiae incubated for 18 to 20 hrs by microbroth dilution method
Enterococcus faecalis [10] = test: Antibacterial activity against Enterococcus faecalis incubated for 18 to 20 hrs by microbroth dilution method
Moraxella catarrhalis [11] = test: Antibacterial activity against Moraxella catarrhalis incubated for 18 to 20 hrs by microbroth dilution method
Haemophilus influenzae = test: Antibacterial activity against Haemophilus influenzae incubated for 18 to 20 hrs by microbroth dilution method

CCCC1(O)CC(=O)c2c(Cc3cc(=O)cc(O)o3)cccc2O1 (stereo unspecified)
MIC (Staphylococcus aureus [1]): 2 µg/mL (≈ 6.05 µM) | MIC (Staphylococcus aureus [2]): 16 µg/mL (≈ 48.4 µM)

CC1=CC[C@@H]2[C@H]3/C(O)=C/C(=O)[C@@H](C)C(=O)O[C@H](C)/C=C/C=C\[C@@H](C)[C@H]3C=C[C@H]2C1
MIC (Bacillus anthracis): 0.03 µg/mL (≈ 0.0757 µM) | MIC (Staphylococcus aureus [3]): 0.06 to 0.25 µg/mL (≈ 0.151 to 0.63 µM) | MIC (Enterococcus faecalis [4]): 0.06 to 0.25 µg/mL (≈ 0.151 to 0.63 µM) | MIC (Streptococcus pneumoniae): 0.06 to 0.25 µg/mL (≈ 0.151 to 0.63 µM) | survival at 10 mg/kg (Staphylococcus aureus [5]): 90% | MIC (Staphylococcus aureus [6]): ≤ 0.25 µg/mL | MIC (Moraxella catarrhalis [7]): 4 µg/mL (≈ 10.1 µM)

CC(C)C[C@H]1NC(=O)[C@@H](NC(=O)c2ncccc2O)[C@@H](C)OC(=O)[C@H](c2ccccc2)N(C)C(=O)[C@H](C)NC(=O)[C@H](C(C)C(C)C)N(C)C(=O)CN(C)C(=O)[C@H]2C[C@@H](O)CN2C1=O (stereo partly drawn) [VIRIFOGRISEIN I] ({Picolinoyl(3-OH)}-T[dL][d(cisHyp)][Sar][NMeLeu(3ξ-Me)]A[NMePhg]; ester 1-C)
MIC (Staphylococcus aureus [8]): 1 to 2 µg/mL (≈ 1.14 to 2.28 µM) | MIC (Staphylococcus aureus [9]): 1 to 2 µg/mL (≈ 1.14 to 2.28 µM) | MIC (Streptococcus pyogenes): 8 µg/mL (≈ 9.1 µM) | MIC (Streptococcus agalactiae): 8 µg/mL (≈ 9.1 µM) | MIC (Enterococcus faecalis [10]): 16 µg/mL (≈ 18.2 µM) | MIC (Moraxella catarrhalis [11]): 1 µg/mL (≈ 1.14 µM) | MIC (Haemophilus influenzae): 16 µg/mL (≈ 18.2 µM)
